# Results reported in US20120094897A1, “NOVEL INHIBITORS OF HEPATITIS C VIRUS REPLICATION” (InterMune, Inc., priority 2010, published 2012).
# Legend:
# [1] = molecular target: T1, HCV NS3 protease (full-length NS3/NS4A-2 complex) (Hepatitis C virus genotype 1a, UniProt P27958); test: NS3 Inhibition Assay (NS3-NS4 protease assay, RETS1 substrate); assay type: biochemical; settings: NS3/NS4A-2, RETS1 substrate, 10 minutes pre-incubation
# T1 construct: Recombinant E. coli or Baculovirus full-length NS3 was diluted to 3.33 μM with assay buffer; host or cells: E. coli or baculovirus (insect cells)
# Method: NS3 Complex Formation with NS4A-2.
# Recombinant E. coli or Baculovirus full-length NS3 was diluted to 3.33 μM with assay buffer and the material was transferred to an eppendorf tube and placed in a water bath in a 4° C. refrigerator. The appropriate amount of NS4A-2 diluted to 8.3 mM in assay buffer was added to an equal the volume of NS3 above (conversion factor—3.8 mg/272 μL assay buffer). The material was transferred to an eppendorf tube and placed in water bath in a 4° C. refrigerator.
# After equilibration to 4° C., equal volumes of NS3 and NS4A-2 solutions were combined in an eppendorf tube, mixed gently with a manual pipettor, and incubated for 15 minutes in the 4° C. water bath. Final concentrations in the mixture are 1.67 μM NS3, 4.15 mM NS4A-2 (2485-fold molar excess NS4A-2).
# After 15 minutes at 4° C., the NS3/NS4A-2 eppendorf tube was removed and placed in a room temperature water bath for 10 minutes. NS3/NS4A-2 was aliquoted at appropriate volumes and stored at −80° C. (E. coli NS3 run at 2 nM in assay, aliquot at 25 μL. BV NS3 run at 3 nM in assay, aliquot at 30 μL).
# Step a. Sample compounds were dissolved to 10 mM in DMSO then diluted to 2.5 mM (1:4) in DMSO. Typically, compounds were added to an assay plate at 2.5 mM concentration, yielding upon dilution a starting concentration of 50 μM in the assay inhibition curve. Compounds were serial diluted in assay buffer to provide test solutions at lower concentrations.
# Step 1. The E. coli. NS3/NS4A-2 was diluted to 4 nM NS3 (1:417.5 of 1.67 μM stock−18 μL 1.67 μM stock+7497 μL assay buffer). The BV NS3/NS4A-2 was diluted to 6 nM NS3 (1:278.3 of 1.67 μM stock−24 μL 1.67 μM stock+6655 μL assay buffer).
# Step. 2. Using the manual multichannel pipettor, and being careful not to introduce bubbles into the plate, 50 μL assay buffer was added to wells A01-H01 of a black Costar 96-well polypropylene storage plate.
# Step 3. Using the manual multichannel pipettor, and being careful not to introduce bubbles into the plate, 50 μL of diluted NS3/NS4A-2 from step 1 was added to wells A02-H12 of the plate in step 2.
# Step 4. Using the manual multichannel pipettor, and being careful not to introduce bubbles into the plate, 25 μL of the wells in drug dilution plate in step a was transferred to corresponding wells in assay plate in step 3. The tips on the multichannel pipettor were changed for each row of compounds transferred.
# Step 5. Using the manual multichannel pipettor, and being careful not to introduce bubbles into the plate, the contents of the wells from the assay plate in step 4 were mixed by aspirating and dispensing 35 μL of the 75 μL in each well five times. The tips on multichannel pipettor were changed for each row of wells mixed.
# Step 6. The plate was covered with a polystyrene plate lid, and the plate from step 5 containing NS3 protease and sample compounds was pre-incubated 10 minutes at room temperature.
# While the plate from step 6 is pre-incubating, the RETS1 substrate was diluted in a 15 mL polypropylene centrifuge tube. The RETS1 substrate was diluted to 8 μM (1:80.75 of 646 μM stock−65 μL 646 μM stock+5184 μL assay buffer).
# After the plate in step 6 finished pre-incubating, and using the manual multichannel, 25 μL of substrate was added to all wells on the plate. The contents of the wells of the plate were quickly mixed, as in step 5, mixing 65 μL of the 100 μL in the wells.
# The plate was read in kinetic mode on the Molecular Devices SpectraMax Gemini XS plate reader. Reader settings: Read time: 30 minutes, Interval: 36 seconds, Reads: 51, Excitation λ: 335 nm, Emission λ: 495 nm, cutoff: 475 nm, Automix: off, Calibrate: once, PMT: high, Reads/well: 6, Vmax pts: 21 or 28/51 depending on length of linearity of reaction
# IC50s are determined using a four parameter curve fit equation, and converted to Ki's using the following Km's: • Full-length E. coli NS3-2.03 μM • Full-length BV NS3-1.74 μM • where Ki=IC50/(1+[S]/Km))
# [2] = system: HCV sub-genomic replicon (I377/NS3-3′) in HuH-7 hepatoma cells (GS4.3); test: Quantitation by ELISA of NPTII in the HCV sub-genomic replicon, GS4.3; assay type: cell-based; settings: Hepatitis C virus, GS4.3 replicon cells, 72 h incubation
# Method: The HCV sub-genomic replicon (I377/NS3-3′, accession No. AJ242652), stably maintained in HuH-7 hepatoma cells, was created by Lohmann et al. Science 285: 110-113 (1999). The replicon-containing cell culture, designated GS4.3, was obtained from Dr. Christoph Seeger of the Institute for Cancer Research, Fox Chase Cancer Center, Philadelphia, Pa.
# GS4.3 cells were maintained at 37° C., 5% CO2, in DMEM (Gibco 11965-092) supplemented with L-glutamine 200 mM (100×) (Gibco25030-081), non-essential amino acids (NEAA)(Biowhittaker 13-114E), heat-inactivated (HI) Fetal Bovine Serum(FBS)(Hyclone SH3007.03) and […] geneticin (G418)(Gibco 10131-035). Cells were sub-divided 1:3 or 4 every 2-3 days.
# 24 h prior to the assay, GS4.3 cells were collected, counted, and plated in 96-well plates (Costar 3585) at 7500 cells/well in 100 μL standard maintenance medium (above) and incubated in the conditions above. To initiate the assay, culture medium was removed, cells were washed once with PBS (Gibco 10010-023) and 90 μl Assay Medium (DMEM, L-glutamine, NEAA, 10% HI FBS, no G418) was added. Inhibitors were made as a 10× stock in Assay Medium, (3-fold dilutions from 10 μM to […] final concentration, final DMSO concentration 1%), 10 μL were added to duplicate wells, plates were rocked to mix, and incubated as above for 72 h.
# An NPTII Elisa kit was obtained from AGDIA, Inc. (Compound direct ELISA test system for Neomycin Phosphotransferase II, PSP 73000/4800). Manufacturer's instructions were followed, with some modifications. 10×PEB-1 lysis buffer was made up to include 500 μM PMSF (Sigma P7626, 50 mM stock in isopropanol). After 72 h incubation, cells were washed once with PBS and 150 μL PEB-1 with PMSF was added per well. Plates were agitated vigorously for 15 minutes, room temperature, and then frozen at −70° C. Plates were thawed, lysates were mixed thoroughly, and 100 μL were applied to an NPTII Elisa plate. A standard curve was made. Lysate from DMSO-treated control cells was pooled, serially diluted with PEB-1 with PMSF, and applied to duplicate wells of the ELISA plate, in a range of initial lysate amount of 150 μL. In addition, 100 μL buffer alone was applied in duplicate as a blank. Plates were sealed and gently agitated at room temperature for 2 h. Following capture incubation, the plates were washed 5×300 μL with PBS-T (0.5% Tween-20, PBS-T was supplied in the ELISA kit). For detection, a 1× dilution of enzyme conjugate diluent MRS-2 (5×) was made in PBS-T, into which 1:100 dilutions of enzyme conjugates A and B were added, as per instructions. Plates were resealed, and incubated with agitation, covered, room temperature, for 2 h. The washing was then repeated and 100 μL of room temperature TMB substrate was added. After approximately 30 minutes incubation (room temperature, agitation, covered), the reaction was stopped with 50 μL 3M sulfuric acid. Plates were read at 450 nm on a Molecular Devices Versamax plate reader.
# Inhibitor effect was expressed as a percentage of DMSO-treated control signal, and inhibition curves were calculated using a 4-parameter equation: y=A+4B−A)/(1+((C/x)̂D))), where C is half-maximal activity or EC50.
# T1 sequence (P27958 1027-1657, one chain of several): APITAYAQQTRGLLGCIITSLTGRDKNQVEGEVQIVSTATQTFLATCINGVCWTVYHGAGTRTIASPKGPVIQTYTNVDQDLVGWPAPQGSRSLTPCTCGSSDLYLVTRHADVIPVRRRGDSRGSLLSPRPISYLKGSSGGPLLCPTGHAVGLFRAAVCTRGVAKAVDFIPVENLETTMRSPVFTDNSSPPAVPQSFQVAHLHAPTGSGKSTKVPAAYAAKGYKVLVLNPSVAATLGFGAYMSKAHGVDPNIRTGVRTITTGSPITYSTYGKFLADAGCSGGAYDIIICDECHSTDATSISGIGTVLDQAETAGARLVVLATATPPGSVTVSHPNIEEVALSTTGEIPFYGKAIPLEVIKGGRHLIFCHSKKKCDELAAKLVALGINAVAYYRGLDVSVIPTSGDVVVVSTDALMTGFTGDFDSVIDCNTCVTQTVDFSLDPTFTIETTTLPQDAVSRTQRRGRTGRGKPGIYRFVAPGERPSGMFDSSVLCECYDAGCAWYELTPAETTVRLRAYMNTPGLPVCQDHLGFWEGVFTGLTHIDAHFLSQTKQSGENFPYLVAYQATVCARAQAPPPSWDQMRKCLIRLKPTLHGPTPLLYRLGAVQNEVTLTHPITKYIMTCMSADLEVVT
SMILES,IC50 [1],EC50 [2]
CC[C@@H]1C[C@@]12NC(=O)[C@@H]1C[C@H](CN1C(=O)[C@@H](NC(=O)OC(C)(C)C)C(C)(C)C)Oc1nc3c(cccc3n1C(C)C)CCCC/C=C/CCCC1(CC1)S(=O)(=O)NC2=O [Compound 111],0.01 to 0.1 µM,≥ 0.1 µM
CC[C@@H]1C[C@@]12NC(=O)[C@@H]1C[C@H](CN1C(=O)[C@@H](NC(=O)OC(C)(C)C)C(C)(C)C)Oc1nc3c(cccc3n1C(C)C)CCCCCCCCCC1(CC1)S(=O)(=O)NC2=O [Compound 112],≤ 0.01 µM,≥ 0.1 µM
CC[C@@H]1C[C@@]12NC(=O)[C@@H]1C[C@H](CN1C(=O)[C@@H](N)C(C)(C)C)Oc1nc3c(cccc3n1C(C)C)CCCCCCCCCC1(CC1)S(=O)(=O)NC2=O [Compound 113],0.01 to 0.1 µM,≥ 0.1 µM
